Measurements as given in paper PMC4503980 (Scientific Reports, 2015).

Key:
Format in all cases: binding
[1] = biological target: T1, α1-Syntrophin-PDZ/nNOS-PDZ interaction (Homo sapiens, UniProt P29475); assay: 'indirect' FP assay, Cy5-Sapk3 / α-Syntrophin-PDZ / nNOS-PDZ; settings: up to 500–600 μM; Cy5-Sapk3 5 nM / α-Syntrophin-PDZ 14 μM / nNOS-PDZ 10 μM
T1 construct: nNOS-PDZ (12–130, human); α-Syntrophin-PDZ (82–200, human); made in house; host or cells: E. coli
Source text: First we tested a series of 23 fluorescent-labelled C-terminal peptide ligands (Supplementary Table S1) derived from PDZ-interacting proteins in order to find a probe with good activity towards the PSD-95 PDZ domains and no or little activity against nNOS-PDZ (Supplementary Fig. S1). The Cnskr2 probe fulfilled these selectivity criteria and was used to generate saturation curves with PDZ2 and PDZ1-2 of PSD-95 (Fig. 4a). […] Next, fixed concentrations of TAMRA-Cnskr2, PSD-95-PDZ2/1-2, and nNOS-PDZ were applied, corresponding to the conditions at IC50 of the nNOS-PDZ inhibition curve (Fig. 4b) where sensitivity of the assay is greatest. […] Here, we used the Sapk3-peptide as it has the desired high affinity to α1-Syntrophin-PDZ and low affinity to nNOS-PDZ (Supplementary Fig. S1).
The minor increases in mP at high concentrations, 260-2900 μM, were due to fluorescence artefacts.
Similar, this assay was established with Syntrophin-PDZ and Sapk3 as probe (Fig. 4d).
In all cases, the DMSO effect on the assay was tested and found negligible.

[2] = biological target: T2, TAMRA-nNOS/PSD-95-PDZ1 interaction (Homo sapiens, UniProt P29475+P78352, V36C); assay: 'direct' FP assay, TAMRA-nNOS / PDZ1 (saturation and inhibition)
T2 construct: nNOS-PDZ (12–130, human); PDZ1 (61-151); made in house; host or cells: E. coli
Protocol: The assay was established by creating a fluorescent version of nNOS-PDZ by TAMRA-labelling nNOS-PDZ via an introduced cysteine residue (V36C). […] However, up to 7.3 μM no inhibition of TAMRA-nNOS/PSD-95-PDZ interactions could be measured (data not shown).
(a) Saturation curves between TAMRA-nNOS (5 nM) and PDZ1, PDZ2, and PDZ1-2 of PSD-95. […] Error bars indicate SEM based on three individual measurements.
nNOS-PDZ (12–130, human) and α-Syntrophin-PDZ (82–200, human), both comprising an N-terminal His-tag/FXa-site sequence ([…]), were likewise expressed in E. coli and purified by HisTrap chromatography followed by gel-filtration as described in details previously. To make the TAMRA-labelled nNOS-PDZ, mutant nNOS-PDZ (V36C) protein was generated by standard site-directed mutagenesis and characterized as described previously. […]
Incubation time was 10–15 minutes (room temperature), and the assay was performed in a 1 × TBS buffer (150 mM NaCl, 10 mM Tris, pH 7.4) using black flat-bottom 384-well plates (Corning Life Sciences, NY) and a Safire2 plate-reader (Tecan, Männedorf, Switzerland). […] TAMRA- and Cy5-probes were measured at excitation/emission values of 530/585 nm (bandwidth = 20 nm) and 635/670 nm (bandwidth = 15 nm), respectively. […]

[3] = biological target: PSD-95-PDZ2 (Homo sapiens, UniProt P78352); assay: ITC titration into PSD-95-PDZ2; set-up: PSD-95-PDZ2 (157–249, human); made in house; settings: 100 μM protein in cell, 750 μM compound in syringe, 1% DMSO, pH 6.3, 25 °C
Source text: Unlike the FP experiments above, which rely on inhibition of interaction partners, the ITC method is a direct measure of binding, regardless of where it takes place on the protein.
Figure 5 ITC curves. Plots showing titrations into PDZ domains fitted to a one-site model.
For isothermal titration calorimetry (ITC) and NMR, PSD-95-PDZ2 (157–249, human) was expressed and purified as described previously. The sequence for the extended Mus musculus nNOS-PDZ (residues 12–134, Uniprot Q9JJ30) was sub-cloned into a pETM11 vector using cloning sites Nco1 and Kpn1, and the protein was expressed and purified following a similar protocol to that used for the production of PSD-95-PDZ2.
All ITC experiments were carried out at 25 °C on an iTC200 Microcalorimeter (GE Healthcare) with a 200 μL cell capacity and 40 μL syringe volume. The buffer used for all solutions was 20 mM phosphate buffer at pH 6.3; each experiment consisted of an initial injection of 0.5 μL, followed by fifteen 2.39 μL injections before a final injection of 1.89 μL. […] In both cases no heat exchange was detected, confirming that there was appropriate match of buffer conditions with no indication of dilution effects. […] For the nNOS-PDZ/PSD-95-PDZ2 interaction, 100 μM PDZ2 in the cell was titrated with 750 μM nNOS-PDZ. […] All data was analysed using the Origin®7 software programme.

T1 sequence (P29475 12-130): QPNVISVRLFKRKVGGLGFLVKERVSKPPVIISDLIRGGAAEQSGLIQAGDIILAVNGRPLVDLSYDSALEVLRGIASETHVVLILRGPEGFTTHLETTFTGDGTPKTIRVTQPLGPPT

SMILES: Oc1c(Cl)cc(Cl)cc1CNc1ccc2[nH]nnc2c1 [IC87201, 2-((1H-Benzo[d][1–3]triazol-5-ylamino)methyl)-4-6-dichlorophenol]
- activity in indirect FP assay (α1-Syntrophin-PDZ/nNOS-PDZ) [1]: no activity
- inhibition of TAMRA-nNOS/PDZ1 interaction ([2]; up to 7.3 μM (fluorescence artefacts above), data not shown): no inhibition
- binding to PSD-95-PDZ2 by ITC [3]: does not bind

SMILES: O=C(O)c1ccc(NCc2cc(Cl)cc(Cl)c2O)cc1O [ZL006, 4-((3,5-Dichloro-2-hydroxybenzyl)amino)-2-hydroxybenzoic acid]
- activity in indirect FP assay (α1-Syntrophin-PDZ/nNOS-PDZ) [1]: no activity
- inhibition of TAMRA-nNOS/PDZ1 interaction ([2]; tested at up to 1200 μM, TAMRA-nNOS 5 nM, PDZ1 7.5 μM): no activity
- binding to PSD-95-PDZ2 by ITC [3]: binding was too weak to produce a binding isotherm
